Tested on: maize
Experiment: Captan with Elementol R seed treatment, dry maize field trial
Assay type: in vivo
Conditions: versus untreated seeds
Procedure: A genetically modified cultivar, supplied by a large seed producing company was used. One bag of treated seed was split and one portion of the seeds in the bag was treated with Captan, while another portion was treated with Captan mixed with Elementol R in the following manner. Captan is a broad-spectrum contact fungicide that has been used on corn seed since the 1950s. It is usually dyed pink and leaves a pink dust in the seed bag and planter box. It is very effective against a broad range of soil fungi. The prescribed amount of Captan was mixed directly with the seeds (Captan reference group). For the test group, seeds were mixed with a similar amount of Captan in 2% Elementol R. The seeds of both groups were briefly mixed or stirred with their individual treatment and then left to dry. Seeds were planted in blocks of 3 or 5 rows stretching the length of the maize field with untreated block s on both sides of each of the treatment groups in the North West Province, South Africa. Culturing was done according to general farming practices with no irrigation.
Plants of each of the untreated, the reference Captan group and the Elementol R/Captan group were collected by pulling up every fifth plant in a row. […]
The total plant mass, the root mass and the leaf mass of each plant were determined. […]

O=C1C2CC=CCC2C(=O)N1SC(Cl)(Cl)Cl (centres unmarked) [Captan]
root mass: only slightly enhanced root mass
leaf mass / growth of the plant leaves (fifty plants per group): did not result in any change of growth of the plant leaves
